Laboratory results taken from US7811760B2, “Vector and method for detecting the change in transcription amount” (priority 2006, dated 2010).

Molecular target: T1, aryl hydrocarbon receptor (Rattus norvegicus, UniProt P41738, Q794H)
T1 construct: The SD-line rat AhR gene-coding region was amplified from the reverse-transcribed sample by means of PCR; V5-His (C-terminal tag of vector pcDNA4/V5-His B); expressed in transfected cells; host or cells: mouse neuroblastoma Neuro2a, transient transfection with LIPOFECTAMINE 2000
T1 sequence (P41738 10-853 Q794H): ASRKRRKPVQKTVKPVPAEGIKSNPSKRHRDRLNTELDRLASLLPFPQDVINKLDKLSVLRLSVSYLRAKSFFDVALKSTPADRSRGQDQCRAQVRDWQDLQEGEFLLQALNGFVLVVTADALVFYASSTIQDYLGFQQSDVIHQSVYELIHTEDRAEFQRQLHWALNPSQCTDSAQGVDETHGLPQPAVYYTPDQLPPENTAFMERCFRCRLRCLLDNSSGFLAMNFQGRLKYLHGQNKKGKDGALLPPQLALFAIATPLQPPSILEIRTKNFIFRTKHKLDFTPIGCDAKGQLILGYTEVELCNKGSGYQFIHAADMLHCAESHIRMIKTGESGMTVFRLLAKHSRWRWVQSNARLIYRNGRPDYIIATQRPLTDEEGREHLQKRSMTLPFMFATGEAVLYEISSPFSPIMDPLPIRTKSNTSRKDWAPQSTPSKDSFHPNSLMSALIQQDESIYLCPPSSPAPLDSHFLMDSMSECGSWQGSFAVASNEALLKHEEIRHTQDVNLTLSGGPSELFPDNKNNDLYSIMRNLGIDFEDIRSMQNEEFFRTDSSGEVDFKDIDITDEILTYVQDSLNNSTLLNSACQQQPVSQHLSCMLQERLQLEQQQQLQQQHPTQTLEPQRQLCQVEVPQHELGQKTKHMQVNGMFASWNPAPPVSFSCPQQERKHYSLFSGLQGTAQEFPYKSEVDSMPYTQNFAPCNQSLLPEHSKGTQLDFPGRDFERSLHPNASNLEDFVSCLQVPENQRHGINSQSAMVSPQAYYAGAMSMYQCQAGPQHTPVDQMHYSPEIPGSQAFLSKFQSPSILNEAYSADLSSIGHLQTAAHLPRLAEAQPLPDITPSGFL
Assay: Reporter gene assay in Neuro2a with vectors having TH transcriptional regulatory regions different in length
Assay type: cell-based, SD-line rat
Conditions: 10 nM TCDD
Description: Shorter fragments of TH transcriptional regulatory region (i.e., 2.0 kbp, 1.5 kbp, 1.0 kbp and 500 bp of fragments) were prepared by PCR using the 2.5 kbp of the TH transcriptional regulatory region incorporated into PGV-THp25 as a template. The following different forward primers were used for each fragment: 2.0-kbp fragment:
As the reverse primer, a common primer (5′-[…]-3′ (SEQ ID No: 17)) was used. Recognition sequence for a restriction enzyme KpnI was added to the terminal of each forward primer, and recognition sequence for a restriction enzyme NheI was added to the terminal of the reverse primer, in order to facilitate incorporation of the PCR amplification fragments into the vector. Pyrobest DNA polymerase (Takara Bio Inc.) was used in the PCR. The amplified TH transcriptional regulatory region fragments were digested with restriction enzymes KpnI and NheI, and subjected to electrophoresis on agarose. The corresponding bands were purified with a QIAQUICK Gel Extraction Kit (manufactured by Qiagen) and incorporated into PGV-B2 vector (TOYO B-NET) previously digested with KpnI and NheI.
These vectors were introduced into Neuro2a by a method similar to Example 3. The obtained cell was exposed to 10 nM TCDD, and the change in the expression amount of the reporter gene was examined in the cell (FIG. 3).
For narrowing down the region involved in transcriptional regulation by the test substance, shorter fragments of the transcriptional regulatory region (i.e., 400 bp, 300 bp, 200 bp and 100 bp of fragments) were prepared by PCR using the 500 bp of the TH transcriptional regulatory region as a template. The following forward primers were used for each fragment.
As the reverse primer, a common primer (5′-[…]-3′ (SEQ ID No: 17)) was used. Recognition sequence for a restriction enzyme KpnI was added to the terminal of each forward primer, and recognition sequence for a restriction enzyme NheI was added to the terminal of the reverse primer. The DNA fragments were amplified by using Pyrobest DNA polymerase (Takara Bio Inc.). […]

Clc1cc2c(cc1Cl)Oc1cc(Cl)c(Cl)cc1O2 [TCDD, 2,3,7,8-tetrachlorodibenzo-p-dioxine]
change in the expression amount of the reporter gene (response) (all vectors with TH transcriptional regulatory regions of 2.5 kbp to 500 bp): there was a response to TCDD
change in the expression amount of the reporter gene (response) (vectors with TH transcriptional regulatory region of 500 bp, 400 bp or 300 bp): there was a response to TCDD
change in the expression amount of the reporter gene (response) (vectors with region of 200 bp or 100 bp): no response to TCDD
